Measurements: PMC6234012 (Nature structural & molecular biology, 2018)
One block for each molecule: values may come before it. No end group written: not given here.

Key:
Ku = settings: fluorescence polarization with labelled peptides; cited from earlier work
[1] = system: DSBs sites in XLF-defective BuS cells; experiment: Live cell recruitment of CFP-XLF to laser sites, BuS cells; format: cell-based, human; settings: for Recruitment to laser-irradiated sites, full-length XLF: CFP-XLF in BuS cells, n=20 cells, WT vs L297W p=0.0093, WT vs L297E p<0.0001
Ku80 = settings: yeast two-hybrid experiments or EMSA; cited from earlier work
[2] = target: KuFL (full length Ku70/Ku80) (Homo sapiens, UniProt P12956+P13010); experiment: ITC, ligand into KuFL; format: binding; settings: 25°C, pH 8.0, KuFL in cell, line 9 deduced from the first injection point
[3] = target: T1, Ku70 full length;Ku80 full length (human?;human?, UniProt P12956;P13010 1-609;1-732, |); experiment: ITC
[4] = target: T1, Ku70 full length;Ku80 full length; experiment: switchSENSE
[5] = target: Ku70cc;Ku80cc;pXLF (long X-KBM peptide) (human?;human?;human?, UniProt P12956;P13010;Q9H9Q4 1-544;1-551;281-299, ||); experiment: X-ray crystallography 2.8 A
[6] = target: Ku70cc;Ku80cc;pXLFs (short X-KBM peptide) (human?;human?;human?, UniProt P12956;P13010;Q9H9Q4 1-544;1-551;287-299, ||); experiment: X-ray crystallography 2.9 A
[7] = target: Ku70cc;Ku80cc;pAPLF (A-KBM peptide) (human?;human?;human?, UniProt P12956;P13010;Q8IW19 1-544;1-551;174-191, ||); experiment: X-ray crystallography 3.0 A
[8] = target: Ku70 full length;Ku80 full length;XLF full length (human?;human?;human?, UniProt P12956;P13010;Q9H9Q4 1-609;1-732;1-299, ||); experiment: EMSA
Chain of Ku70 full length;Ku80 full length;XLF full length (P12956 whole entry, chain 1 of 3): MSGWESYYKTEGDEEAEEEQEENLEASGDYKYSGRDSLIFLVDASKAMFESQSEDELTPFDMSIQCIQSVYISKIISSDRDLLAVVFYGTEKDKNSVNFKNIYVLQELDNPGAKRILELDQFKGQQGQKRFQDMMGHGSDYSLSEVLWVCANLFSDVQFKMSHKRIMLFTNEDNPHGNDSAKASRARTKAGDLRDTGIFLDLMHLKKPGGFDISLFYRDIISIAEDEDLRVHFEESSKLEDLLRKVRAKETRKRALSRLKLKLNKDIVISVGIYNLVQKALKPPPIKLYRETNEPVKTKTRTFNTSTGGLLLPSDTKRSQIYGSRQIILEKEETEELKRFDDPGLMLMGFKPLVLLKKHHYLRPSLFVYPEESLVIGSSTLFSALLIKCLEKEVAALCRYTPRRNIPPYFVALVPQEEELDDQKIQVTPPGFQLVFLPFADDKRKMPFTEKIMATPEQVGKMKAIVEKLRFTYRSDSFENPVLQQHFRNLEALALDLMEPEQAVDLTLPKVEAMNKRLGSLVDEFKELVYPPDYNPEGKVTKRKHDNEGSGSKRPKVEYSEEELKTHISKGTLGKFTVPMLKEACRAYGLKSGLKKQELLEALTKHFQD
Chain of Ku70 full length;Ku80 full length;XLF full length (P13010 whole entry, chain 2 of 3): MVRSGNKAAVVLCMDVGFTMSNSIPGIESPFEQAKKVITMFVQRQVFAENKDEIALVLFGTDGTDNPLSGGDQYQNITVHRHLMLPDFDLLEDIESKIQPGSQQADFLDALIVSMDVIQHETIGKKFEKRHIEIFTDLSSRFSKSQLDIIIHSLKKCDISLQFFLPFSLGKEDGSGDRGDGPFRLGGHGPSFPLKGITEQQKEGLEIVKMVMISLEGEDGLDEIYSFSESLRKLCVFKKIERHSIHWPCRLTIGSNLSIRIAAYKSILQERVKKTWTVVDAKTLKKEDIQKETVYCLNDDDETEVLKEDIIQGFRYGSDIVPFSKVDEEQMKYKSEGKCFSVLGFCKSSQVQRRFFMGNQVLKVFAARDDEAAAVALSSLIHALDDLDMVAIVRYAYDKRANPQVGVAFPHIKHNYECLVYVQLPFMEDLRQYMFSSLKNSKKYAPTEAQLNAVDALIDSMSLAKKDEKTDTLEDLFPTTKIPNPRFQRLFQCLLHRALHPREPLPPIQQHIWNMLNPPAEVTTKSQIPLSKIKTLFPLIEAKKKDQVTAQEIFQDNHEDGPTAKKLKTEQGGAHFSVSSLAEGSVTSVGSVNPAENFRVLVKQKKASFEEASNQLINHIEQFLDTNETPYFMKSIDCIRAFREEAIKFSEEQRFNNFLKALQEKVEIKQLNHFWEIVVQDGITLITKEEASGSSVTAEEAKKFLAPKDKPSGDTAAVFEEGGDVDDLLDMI
Chain of Ku70 full length;Ku80 full length;XLF full length (Q9H9Q4 whole entry, chain 3 of 3): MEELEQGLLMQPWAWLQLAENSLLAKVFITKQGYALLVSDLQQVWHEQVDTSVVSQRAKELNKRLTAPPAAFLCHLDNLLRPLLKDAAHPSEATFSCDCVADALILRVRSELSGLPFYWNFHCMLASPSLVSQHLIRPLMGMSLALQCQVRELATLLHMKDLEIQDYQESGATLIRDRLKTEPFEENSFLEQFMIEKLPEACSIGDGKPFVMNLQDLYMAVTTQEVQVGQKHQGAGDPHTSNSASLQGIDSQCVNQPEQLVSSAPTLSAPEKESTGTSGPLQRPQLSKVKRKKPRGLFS

T1 sequence (P12956 whole entry, chain 1 of 2): as the sequence (P12956 whole entry, chain 1 of 3) above
T1 sequence (P13010 whole entry, chain 2 of 2): as the sequence (P13010 whole entry, chain 2 of 3) above
Chain of KuFL (full length Ku70/Ku80) (P13010 whole entry): as the sequence (P13010 whole entry, chain 2 of 3) above
Chain of KuFL (full length Ku70/Ku80) (P12956 whole entry): as the sequence (P12956 whole entry, chain 1 of 3) above
Chain of Ku70cc;Ku80cc;pXLF (long X-KBM peptide) (P12956 1-544, chain 1 of 2): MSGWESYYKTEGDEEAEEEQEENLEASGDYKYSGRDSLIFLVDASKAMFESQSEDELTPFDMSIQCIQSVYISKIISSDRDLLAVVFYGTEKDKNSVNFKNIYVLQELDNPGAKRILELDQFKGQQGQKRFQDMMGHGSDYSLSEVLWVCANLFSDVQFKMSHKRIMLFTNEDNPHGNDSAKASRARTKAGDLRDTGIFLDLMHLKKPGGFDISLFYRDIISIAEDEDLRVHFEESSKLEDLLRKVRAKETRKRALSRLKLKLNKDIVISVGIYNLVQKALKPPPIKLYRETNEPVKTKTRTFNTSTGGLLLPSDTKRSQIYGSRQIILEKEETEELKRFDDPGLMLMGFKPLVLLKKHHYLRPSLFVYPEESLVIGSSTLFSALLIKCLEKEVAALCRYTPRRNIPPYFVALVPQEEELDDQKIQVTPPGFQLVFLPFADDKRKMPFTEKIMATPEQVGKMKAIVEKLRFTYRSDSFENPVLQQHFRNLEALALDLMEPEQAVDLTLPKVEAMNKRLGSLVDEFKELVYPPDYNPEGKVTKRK
Chain of Ku70cc;Ku80cc;pXLF (long X-KBM peptide) (P13010 1-551, chain 2 of 2): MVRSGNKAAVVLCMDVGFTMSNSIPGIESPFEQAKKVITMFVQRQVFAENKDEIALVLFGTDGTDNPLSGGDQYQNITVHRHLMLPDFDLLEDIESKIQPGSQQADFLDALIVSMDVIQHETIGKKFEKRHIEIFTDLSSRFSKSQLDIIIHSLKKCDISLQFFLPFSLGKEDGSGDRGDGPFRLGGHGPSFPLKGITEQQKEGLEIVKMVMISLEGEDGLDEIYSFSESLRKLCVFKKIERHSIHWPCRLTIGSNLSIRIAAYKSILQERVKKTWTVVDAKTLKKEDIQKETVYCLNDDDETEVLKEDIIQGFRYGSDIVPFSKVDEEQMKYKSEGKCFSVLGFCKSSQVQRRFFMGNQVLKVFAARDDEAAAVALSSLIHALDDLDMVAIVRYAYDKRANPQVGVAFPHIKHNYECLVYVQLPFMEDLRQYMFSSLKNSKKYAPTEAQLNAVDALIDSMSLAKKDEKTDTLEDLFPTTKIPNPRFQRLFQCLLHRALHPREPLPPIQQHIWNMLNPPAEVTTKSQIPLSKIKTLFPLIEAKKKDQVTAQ
Chain of Ku70cc;Ku80cc;pAPLF (A-KBM peptide) (P12956 1-544, chain 1 of 2): as the sequence (P12956 1-544, chain 1 of 2) above
Chain of Ku70cc;Ku80cc;pAPLF (A-KBM peptide) (P13010 1-551, chain 2 of 2): as the sequence (P13010 1-551, chain 2 of 2) above
Chain of Ku70cc;Ku80cc;pXLFs (short X-KBM peptide) (P12956 1-544, chain 1 of 2): as the sequence (P12956 1-544, chain 1 of 2) above
Chain of Ku70cc;Ku80cc;pXLFs (short X-KBM peptide) (P13010 1-551, chain 2 of 2): as the sequence (P13010 1-551, chain 2 of 2) above

Molecule: CC(C)C[C@H](NC(=O)CNC(=O)[C@H](CCCNC(=N)N)NC(=O)[C@@H]1CCCN1C(=O)[C@H](CCCCN)NC(=O)[C@H](CCCCN)NC(=O)[C@H](CCCNC(=N)N)NC(=O)[C@H](CCCCN)NC(=O)[C@@H](NC(=O)[C@H](CCCCN)NC(=O)[C@H](CO)NC(=O)[C@H](CC(C)C)NC(=O)[C@H](CCC(N)=O)NC(=O)[C@@H]1CCCN1C(=O)[C@H](CCCNC(=N)N)NC(=O)[C@H](CCC(N)=O)NC(=O)[C@@H](N)CC(C)C)C(C)C)C(=O)N[C@@H](Cc1ccccc1)C(=O)N[C@@H](CO)C(=O)O [pXLF]
- Interaction detected (Ku): not detected

Molecule: L115D XLF: XLF mutant unable to interact with XRCC4
- Recruitment to laser-irradiated sites, full-length XLF [1]: efficient recruitment
- Effect of APLF knock-down on XLF recruitment ([1]; CFP-XLF, APLF knock-down): insensitive to APLF knock-down

Molecule: APLF: APTX and PNKP-like factor
- Effect of Ku80 mutations at L68, Y74, I112 on interaction with APLF (Ku80): greatly reduce or disrupt the interactions

- ΔH [2]: -12.1 ± 2.0 kcal/M
Molecule: LQRPQLSKVKRKKPRGWFS [pXLF(LW)]

Molecule: XLF L115D/L297E: XLF L115D/L297E double mutant
- Recruitment to laser-irradiated sites, full-length XLF [1]: impaired

Molecule: G296W: XLF mutant in the extreme C-terminus
- Recruitment to laser-irradiated sites, full-length XLF [1]: important reduction of the recruitment

Molecule: F298G: XLF mutant in the extreme C-terminus
- Recruitment to laser-irradiated sites, full-length XLF [1]: important reduction of the recruitment

Molecule: S299E: XLF mutant in the extreme C-terminus
- Recruitment to laser-irradiated sites, full-length XLF [1]: important reduction of the recruitment

B1: DNA 18bp (CN3/CN4) (dsDNA)
DNA 1: GTTATCCGAGCGTGAGAC
DNA 2: GTCTCACGCTCGGATAAC
- Kd [3]: 4.1 ± 0.7 nM

B2: 48bp DNA nanolever (NLB48) (dsDNA)
DNA 1: TAGTCGTAAGCTGATATGGCTGATTAGTCGGAAGCATCGAACGCTGAT
DNA 2: ATCAGCGTTCGATGCTTCCGACTAATCAGCCATATCAGCTTACGACTA
- binding result [4]: binds

B3: hDNA (CN1/CN2 hairpin DNA) (structured_DNA)
DNA 1: CGCGCCCAGCTTTCCCAGCTAATAAACTAAAAAC
DNA 2: GTTTTTAGTTTATTGGGCGCG
- binding result [5]: binds
- binding result [6]: binds
- binding result [7]: binds

B4: 50bp DNA (MM 50bp up/do) (dsDNA)
DNA 1: TAAATGCCAATGCTGCTGATACGTACTCGGACTGATTCGGAACTGTAACG
DNA 2: CGTTACAGTTCCGAATCAGTCCGAGTACGTATCAGCAGCATTGGCATTTA
- binding result [8]: binds
